Data on one sequence can be found in PMC12677653, “Inhibition of Tumor Lipogenesis and Growth by Peptide‐Based Targeting of SREBP Activation” (Advanced Science, 2025).

In this assay the target is T1, binding of PCK1 to Insig1 (Homo sapiens, UniProt P35558).
T1 sequence (P35558 1-622): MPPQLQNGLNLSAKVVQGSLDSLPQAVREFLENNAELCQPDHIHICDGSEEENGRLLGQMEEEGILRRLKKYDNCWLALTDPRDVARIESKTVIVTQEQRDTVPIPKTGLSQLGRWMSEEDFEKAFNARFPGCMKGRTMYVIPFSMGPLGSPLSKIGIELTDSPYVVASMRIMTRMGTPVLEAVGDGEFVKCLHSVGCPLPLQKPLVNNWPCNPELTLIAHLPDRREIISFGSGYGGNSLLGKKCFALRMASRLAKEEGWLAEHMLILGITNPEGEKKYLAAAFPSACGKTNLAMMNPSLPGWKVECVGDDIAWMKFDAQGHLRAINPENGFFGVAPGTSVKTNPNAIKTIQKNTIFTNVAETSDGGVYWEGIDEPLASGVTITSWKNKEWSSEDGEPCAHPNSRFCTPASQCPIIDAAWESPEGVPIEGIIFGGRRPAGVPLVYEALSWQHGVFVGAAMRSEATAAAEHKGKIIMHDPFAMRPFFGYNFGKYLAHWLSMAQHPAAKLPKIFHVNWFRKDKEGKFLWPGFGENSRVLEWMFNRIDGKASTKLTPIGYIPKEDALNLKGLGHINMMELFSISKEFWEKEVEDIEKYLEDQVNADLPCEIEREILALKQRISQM
Nature of the assay: Immunoprecipitation of IGF1-induced PCK1-Insig1 binding, Huh7. The format is cell-based. Also noted: expressed in transfected cells; host or cells: Huh7. To be noted: Flag-PCK1-expressing Huh7 cells, peptide 15 µM 1 h before IGF1 100 ng/mL. The protocol:
Figure 1 The Insig1/2 loop 1 peptide binds to S90‐phosphorylated PCK1 and blocks PCK1‐mediated SREBP activation and tumor cell proliferation. Immunoblotting analyses were performed using the indicated antibodies; representative results from three independent experiments are shown (IP, immunoprecipitation; WB, western blot). a) Huh7 cells expressing various Insig1 (top) or Insig2 (bottom) truncation mutants were treated with or without IGF1 (100 ng mL^−1) for 1 h. b,c) Biolayer interferometry assays (Sartorius Octet) were employed to measure the binding affinity of Insig1/2 loop 1 peptide to GST‐PCK1 or GST‐PCK1 pS90 proteins. […] Statistical significance was determined by one‐way analysis of variance (ANOVA). g) Following pretreatment with Insig1/2 loop 1 peptide (15 µM) and IGF1 stimulation (100 ng mL^−1, 8 h), Huh7 cells were subjected to immunofluorescence analysis (scale bar: 10 µm). h) Quantitative PCR analysis of SREBP1 target gene GPAM in Huh7 cells pretreated with Insig1/2 loop 1 peptide (15 µM) and stimulated with IGF1 (100 ng mL^−1) for 10 h. […] Statistical significance was determined by one‐way analysis of variance (ANOVA). i) Quantitative PCR analysis of SREBP1 target gene FASN in Huh7 cells pretreated with Insig1/2 loop 1 peptide (15 µM) and stimulated with IGF1 (100 ng mL^−1) for 10 h. […]

Take “RKKRRQRRRLYPCIDSHLGEPHKFKRE [Insig1/2 loop 1 peptide]”: the “IGF1-induced binding of PCK1 to Insig1” value is on record as “markedly inhibited”.
